Laboratory results taken from ChEMBL document CHEMBL1944604, “Aminopurine based JNK inhibitors for the prevention of ischemia reperfusion injury” (Bioorg Med Chem Lett, 2012).
≈ marks a conversion by molar mass, not a printed value.

Tests used:
[1] = Metabolic stability of the compound in rat liver microsomes assessed as compound remaining at 3 uM after 30 mins; assay type: ADME, Microsome; conditions: read-out: Stability
[2] = Metabolic stability of the compound in dog liver microsomes assessed as compound remaining at 3 uM after 30 mins; assay type: ADME, Canis lupus familiaris, Microsome; conditions: read-out: Stability
[3] = Metabolic stability of the compound in monkey liver microsomes assessed as compound remaining at 3 uM after 30 mins; assay type: ADME, Macaca mulatta, Microsome; conditions: rhesus monkey, read-out: Stability
[4] = Metabolic stability of the compound in human liver microsomes assessed as compound remaining at 3 uM after 30 mins; assay type: ADME, Microsome; conditions: read-out: Stability
[5] = Thermodynamic solubility of the compound at pH 5; assay type: physicochemical; conditions: buffer, read-out: Therm_solubility
[6] = molecular target: T1, c-Jun N-terminal kinase, JNK (Homo sapiens, UniProt P45983+P53779+P45984); experiment: Inhibition of JNK-mediated cJun phosphorylation in human Jurkat T cells by Western blotting; assay type: cell-based
[7] = molecular target: Mitogen-activated protein kinase 9 (Homo sapiens, UniProt P45984); experiment: Inhibition of full length Hexa-His-tagged JNK2 using GST-tagged cJun and [gamma33P]ATP as substrate after 60 mins by scintillation counting
Sequence of Mitogen-activated protein kinase 9 (P45984 whole entry): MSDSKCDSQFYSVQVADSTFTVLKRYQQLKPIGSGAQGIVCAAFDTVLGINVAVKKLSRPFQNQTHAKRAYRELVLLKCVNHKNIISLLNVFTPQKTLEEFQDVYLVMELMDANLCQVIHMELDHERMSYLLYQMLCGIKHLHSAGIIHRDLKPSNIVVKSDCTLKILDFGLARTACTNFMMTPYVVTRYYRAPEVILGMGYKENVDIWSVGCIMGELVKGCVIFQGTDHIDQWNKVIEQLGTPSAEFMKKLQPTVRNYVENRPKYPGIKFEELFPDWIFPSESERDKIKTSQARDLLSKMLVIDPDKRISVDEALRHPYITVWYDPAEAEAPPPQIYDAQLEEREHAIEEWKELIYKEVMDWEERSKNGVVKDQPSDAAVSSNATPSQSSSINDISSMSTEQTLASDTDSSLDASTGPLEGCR

[8] = molecular target: Mitogen-activated protein kinase 10 (Homo sapiens, UniProt P53779); experiment: Inhibition of full length Hexa-His-tagged JNK3 using GST-tagged cJun and [gamma33P]ATP as substrate after 60 mins by scintillation counting
Sequence of Mitogen-activated protein kinase 10 (P53779 whole entry): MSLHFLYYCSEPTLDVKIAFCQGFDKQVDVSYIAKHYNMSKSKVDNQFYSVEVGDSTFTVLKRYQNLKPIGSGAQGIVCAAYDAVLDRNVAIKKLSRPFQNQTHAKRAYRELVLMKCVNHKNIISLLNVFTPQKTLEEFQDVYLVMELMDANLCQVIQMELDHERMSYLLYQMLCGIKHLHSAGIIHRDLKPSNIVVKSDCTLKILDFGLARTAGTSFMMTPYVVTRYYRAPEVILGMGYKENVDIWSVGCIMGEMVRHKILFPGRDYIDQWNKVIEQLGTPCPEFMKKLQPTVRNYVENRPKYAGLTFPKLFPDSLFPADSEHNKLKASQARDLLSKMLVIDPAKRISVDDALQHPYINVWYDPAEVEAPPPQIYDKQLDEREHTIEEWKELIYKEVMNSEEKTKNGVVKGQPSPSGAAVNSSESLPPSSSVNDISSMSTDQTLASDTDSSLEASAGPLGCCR

[9] = molecular target: Mitogen-activated protein kinase 14 (Homo sapiens, UniProt Q16539); experiment: Inhibition of p38alpha using MBP and [gamma33P]ATP as substrate after 60 mins by scintillation counting
Sequence of Mitogen-activated protein kinase 14 (Q16539 whole entry): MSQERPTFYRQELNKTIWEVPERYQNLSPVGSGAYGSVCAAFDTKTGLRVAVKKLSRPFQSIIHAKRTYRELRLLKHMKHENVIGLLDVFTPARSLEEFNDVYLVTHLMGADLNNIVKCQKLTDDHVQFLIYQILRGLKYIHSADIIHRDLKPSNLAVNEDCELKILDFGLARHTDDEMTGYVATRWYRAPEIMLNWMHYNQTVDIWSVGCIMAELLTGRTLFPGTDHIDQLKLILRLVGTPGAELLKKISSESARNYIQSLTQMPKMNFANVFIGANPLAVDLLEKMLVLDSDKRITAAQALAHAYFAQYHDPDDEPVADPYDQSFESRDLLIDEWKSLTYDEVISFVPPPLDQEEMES

[10] = molecular target: T1, c-Jun N-terminal kinase, JNK; experiment: Inhibition of JNK-mediated cJun phosphorylation in anisomysin-stimulated human Jurkat T cells pretreated for 30 mins before anisomysin stimulation measured after 10 mins by DELFIA assay; assay type: cell-based
Rattus norvegicus [11] = experiment: Antiinflammatory activity in po dosed CD rat whole blood assessed as inhibition of LPS-induced TNFalpha production administered 1 hr before LPS challenge measured by […]; assay type: functional, organism-based
Mus musculus [12] = experiment: Hepatoprotective activity in BALB/c mouse assessed as inhibition of concanavalin A-induced ALT elevation at 30 mg/kg, ip administered 1 hr prior Con A challenge; assay type: functional; conditions: route intraperitoneal
Mus musculus [13] = experiment: Hepatoprotective activity in BALB/c mouse assessed as inhibition of concanavalin A-induced ALT elevation at 60 mg/kg, ip administered 1 hr prior Con A challenge; assay type: functional; conditions: route intraperitoneal
Rattus norvegicus [14] = experiment: Antiischemic activity in Lewis rat ischemia reperfusion model assessed as increase in survival rate at 3 mg/kg, iv bolus administered 15 mins before ischemia challenge relative to control; assay type: functional
[15] = AUC in rat at 2 to 10 mg/kg, iv bolus; assay type: ADME, organism-based; parameters: dose 2-10 mg/kg, route intravenous; conditions: plasma
[16] = Half life in rat at 2 to 10 mg/kg, iv bolus; assay type: ADME, organism-based; parameters: dose 2-10 mg/kg, route intravenous; conditions: in vivo
[17] = Clearance in rat at 10 mg/kg, iv infusion; assay type: ADME, organism-based; parameters: dose 10 mg/kg, route intravenous; conditions: in vivo
[18] = AUC in rat at 10 mg/kg, iv infusion; assay type: ADME, organism-based; parameters: dose 10 mg/kg, route intravenous; conditions: plasma
[19] = Clearance in dog at 1 mg/kg, iv bolus; assay type: ADME, organism-based, Canis lupus familiaris; parameters: dose 1 mg/kg, route intravenous; conditions: in vivo
[20] = Volume of distribution at steady state in dog at 1 mg/kg, iv bolus; assay type: ADME, organism-based, Canis lupus familiaris; parameters: dose 1 mg/kg, route intravenous; conditions: in vivo, read-out: Vdss
[21] = AUC in dog at 1 mg/kg, iv bolus; assay type: ADME, organism-based, Canis lupus familiaris; parameters: dose 1 mg/kg, route intravenous; conditions: plasma
[22] = Half life in dog at 1 mg/kg, iv bolus; assay type: ADME, organism-based, Canis lupus familiaris; parameters: dose 1 mg/kg, route intravenous; conditions: in vivo
[23] = Volume of distribution at steady state in cynomolgus monkey at 1 mg/kg, iv bolus; assay type: ADME, organism-based, Macaca fascicularis; parameters: dose 1 mg/kg, route intravenous; conditions: in vivo, read-out: Vdss
[24] = Half life in cynomolgus monkey at 1 mg/kg, iv bolus; assay type: ADME, organism-based, Macaca fascicularis; parameters: dose 1 mg/kg, route intravenous; conditions: in vivo
[25] = Mean residence time in cynomolgus monkey at 1 mg/kg, iv bolus; assay type: ADME, organism-based, Macaca fascicularis; parameters: dose 1 mg/kg, route intravenous; conditions: in vivo
Cytochrome P450 1A2 = molecular target: T2, Cytochrome P450 1A2 (Homo sapiens, UniProt P05177); experiment: Inhibition of recombinant CYP1A2 up to 30 uM; assay type: ADME; conditions: recombinant enzyme
T2 sequence (P05177 whole entry): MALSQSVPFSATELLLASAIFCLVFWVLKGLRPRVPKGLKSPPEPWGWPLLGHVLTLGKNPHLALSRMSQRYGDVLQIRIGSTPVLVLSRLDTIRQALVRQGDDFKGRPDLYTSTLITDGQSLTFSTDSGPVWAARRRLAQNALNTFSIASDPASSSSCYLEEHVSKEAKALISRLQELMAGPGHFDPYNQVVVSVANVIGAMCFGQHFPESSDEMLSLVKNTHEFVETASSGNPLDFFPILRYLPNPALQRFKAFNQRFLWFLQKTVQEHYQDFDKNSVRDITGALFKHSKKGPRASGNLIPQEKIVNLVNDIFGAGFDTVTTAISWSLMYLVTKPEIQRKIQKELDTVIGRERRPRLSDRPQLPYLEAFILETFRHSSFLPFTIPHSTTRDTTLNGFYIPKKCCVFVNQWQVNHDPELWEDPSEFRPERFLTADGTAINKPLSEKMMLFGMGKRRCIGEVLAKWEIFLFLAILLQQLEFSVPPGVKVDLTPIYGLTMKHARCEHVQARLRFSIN

Cytochrome P450 2C9 = Cytochrome P450 2C9 (Homo sapiens, UniProt P11712); experiment: Inhibition of recombinant CYP2C9 up to 30 uM; assay type: ADME; conditions: recombinant enzyme
Sequence of Cytochrome P450 2C9 (P11712 whole entry): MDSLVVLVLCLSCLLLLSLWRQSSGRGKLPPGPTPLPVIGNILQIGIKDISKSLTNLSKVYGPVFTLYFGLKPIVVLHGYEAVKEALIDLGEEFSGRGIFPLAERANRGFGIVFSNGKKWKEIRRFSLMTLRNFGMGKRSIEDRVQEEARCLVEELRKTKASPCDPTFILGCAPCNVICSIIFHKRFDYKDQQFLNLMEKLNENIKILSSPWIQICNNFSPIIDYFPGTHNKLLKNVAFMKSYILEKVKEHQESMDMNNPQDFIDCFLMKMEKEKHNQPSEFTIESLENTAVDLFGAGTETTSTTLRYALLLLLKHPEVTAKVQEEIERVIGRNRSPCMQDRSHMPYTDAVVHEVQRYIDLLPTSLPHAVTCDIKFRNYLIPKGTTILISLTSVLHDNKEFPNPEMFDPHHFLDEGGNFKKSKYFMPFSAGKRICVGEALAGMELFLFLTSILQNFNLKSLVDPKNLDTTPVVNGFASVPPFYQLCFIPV

Cytochrome P450 2D6 = Cytochrome P450 2D6 (Homo sapiens, UniProt P10635); experiment: Inhibition of recombinant CYP2D6 up to 30 uM; assay type: ADME; conditions: recombinant enzyme
Sequence of Cytochrome P450 2D6 (P10635 whole entry): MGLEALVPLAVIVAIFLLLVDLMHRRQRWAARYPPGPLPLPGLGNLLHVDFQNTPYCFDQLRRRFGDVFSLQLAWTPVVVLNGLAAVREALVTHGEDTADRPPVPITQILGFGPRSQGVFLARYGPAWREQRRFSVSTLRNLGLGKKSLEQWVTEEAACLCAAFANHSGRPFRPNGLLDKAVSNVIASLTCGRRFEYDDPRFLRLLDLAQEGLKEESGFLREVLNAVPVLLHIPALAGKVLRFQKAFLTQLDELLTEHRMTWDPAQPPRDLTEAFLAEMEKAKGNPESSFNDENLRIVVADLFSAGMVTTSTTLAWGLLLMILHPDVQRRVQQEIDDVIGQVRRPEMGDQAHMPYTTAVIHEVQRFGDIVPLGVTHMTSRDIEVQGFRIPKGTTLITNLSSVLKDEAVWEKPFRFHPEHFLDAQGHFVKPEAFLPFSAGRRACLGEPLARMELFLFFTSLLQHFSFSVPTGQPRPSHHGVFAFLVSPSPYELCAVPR

CYP2B6 = molecular target: T3, CYP2B6 (Homo sapiens, UniProt P20813); experiment: Drug metabolism assessed as CYP2B6-mediated compound loss after 30 mins; assay type: ADME; conditions: recombinant enzyme; read-out: Drug metabolism
T3 sequence (P20813 whole entry): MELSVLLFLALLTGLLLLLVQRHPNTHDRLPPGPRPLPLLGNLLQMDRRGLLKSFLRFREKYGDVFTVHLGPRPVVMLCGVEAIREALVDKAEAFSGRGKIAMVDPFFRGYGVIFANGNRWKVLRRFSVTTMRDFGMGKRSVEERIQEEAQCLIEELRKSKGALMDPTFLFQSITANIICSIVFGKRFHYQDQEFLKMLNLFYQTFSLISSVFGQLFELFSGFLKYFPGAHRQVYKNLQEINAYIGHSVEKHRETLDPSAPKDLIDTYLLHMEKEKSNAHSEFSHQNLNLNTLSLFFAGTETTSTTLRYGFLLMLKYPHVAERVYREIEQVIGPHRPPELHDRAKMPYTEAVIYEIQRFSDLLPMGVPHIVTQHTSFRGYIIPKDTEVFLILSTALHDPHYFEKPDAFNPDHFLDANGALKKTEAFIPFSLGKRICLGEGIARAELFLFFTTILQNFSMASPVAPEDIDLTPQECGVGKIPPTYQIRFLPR

CYP3A4 = CYP3A4 (Homo sapiens, UniProt P08684); experiment: Drug metabolism assessed as CYP3A4-mediated compound loss after 30 mins; assay type: ADME; conditions: recombinant enzyme; read-out: Drug metabolism
Sequence of CYP3A4 (P08684 whole entry): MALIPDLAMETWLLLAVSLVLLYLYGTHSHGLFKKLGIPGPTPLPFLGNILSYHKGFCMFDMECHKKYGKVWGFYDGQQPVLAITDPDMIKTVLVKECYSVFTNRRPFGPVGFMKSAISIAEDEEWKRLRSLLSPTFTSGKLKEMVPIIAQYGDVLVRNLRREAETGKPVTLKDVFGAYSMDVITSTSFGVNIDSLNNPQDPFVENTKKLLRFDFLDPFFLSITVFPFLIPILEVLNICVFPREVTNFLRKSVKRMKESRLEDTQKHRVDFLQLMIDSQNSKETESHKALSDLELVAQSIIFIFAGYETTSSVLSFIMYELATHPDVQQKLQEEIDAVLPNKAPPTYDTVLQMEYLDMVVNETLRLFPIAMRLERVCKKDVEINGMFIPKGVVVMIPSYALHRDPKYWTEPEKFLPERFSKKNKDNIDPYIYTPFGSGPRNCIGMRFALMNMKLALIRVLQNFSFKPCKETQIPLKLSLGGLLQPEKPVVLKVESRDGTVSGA

Hepatocyte = experiment: Drug metabolism in mouse hepatocytes after 60 mins; assay type: ADME, cell-based; conditions: 1 h
Plasma = experiment: Drug metabolism in rat plasma at 2 mg/kg after 60 mins; assay type: ADME, organism-based; parameters: dose 2 mg/kg; conditions: in vivo, 1 h
Rattus norvegicus [26] = experiment: Toxicity in rat non-anesthetized rat at 10 mg/kg, iv infusion administered 4 hrs for 4 consecutive days; assay type: organism-based; parameters: dose 10 mg/kg, route intravenous; conditions: in vivo
Rattus norvegicus [27] = experiment: Toxicity in rat non-anesthetized rat at 30 mg/kg, iv infusion administered 4 hrs for 4 consecutive days; assay type: organism-based; parameters: dose 30 mg/kg, route intravenous; conditions: in vivo

Q: What does the source list for `N[C@H]1CC[C@H](Nc2ncc3nc(Nc4ccc(F)cc4F)n(C4CCCC4)c3n2)CC1`?
A: remaining at 0.5 h, 3 µM [1]: 92%; remaining at 0.5 h, 3 µM [2]: 100%; remaining at 0.5 h, 3 µM [3]: 100%; remaining at 0.5 h, 3 µM [4]: 100%; solubility thermodynamic [5]: 792 µg/mL (≈ 1850 µM); IC50 [6]: 400 nM; IC50 [7]: 25 nM; IC50 [8]: 24 nM; IC50 [9]: 220 nM; IC50 [10]: 350 nM; IC50 (Rattus norvegicus [11]): 1500 nM; inhibition in vivo at 30 mg/kg (Mus musculus [12]): 41%; inhibition in vivo at 60 mg/kg (Mus musculus [13]): 98%; survival at 3 mg/kg (Rattus norvegicus [14]): 60%; AUC [15]: 4.7 µM·h; half-life [16]: 17 h; clearance [17]: 83 mL/min/kg; AUC [18]: 3.8 µM·h; clearance [19]: 28 mL/min/kg; Vd [20]: 30 L/kg; AUC [21]: 1.2 µM·h; half-life [22]: 17 h; Vd [23]: 11 L/kg; half-life [24]: 37 h; MRT [25]: 40 h; inhibition (INH) (Cytochrome P450 1A2): Not Active; inhibition (INH) (Cytochrome P450 2C9): Not Active; inhibition (INH) (Cytochrome P450 2D6): Not Active; metabolised at 0.5 h (CYP2B6): 14%; metabolised at 0.5 h (CYP3A4): 10%; Drug metabolism (Hepatocyte): Not Active; Drug metabolism (Plasma): Not Active; Activity (Rattus norvegicus [26]): Non-toxic; Activity (Rattus norvegicus [27]): Non-toxic
